# Measured values as given in patent US20090143454A1, “Pyrazoline Derivatives and Their Use As Pesticides” (BAYER CROPSCIENCE AG, priority 2001, published 2009).
# Tested on: not listed separately
# Experiment: logP determination by HPLC on reversed-phase column (EEC Directive 79/831 Annex V.A8)
# Format: physicochemical
# Conditions: pH 2.3
# Procedure: The logP values given in the Preparation Examples and Tables above are determined in accordance with EEC Directive 79/831 Annex V.A8 by HPLC (High Performance Liquid Chromatography) using a reversed-phase column (C 18). Temperature: 43° C.
# The determination in the acidic range is carried out at pH 2.3 using the mobile phases 0.1% aqueous phosphoric acid and acetonitrile; linear gradient from 10% acetonitrile to 90% acetonitrile.
# Calibration is carried out using unbranched alkan-2-ones (having 3 to 16 carbon atoms) with known logP values (determination of the logP values by the retention times using linear interpolation between two successive alkanones).
SMILES,logP (pH 2)/m.p.,logP (pH 2)
N#Cc1cnn(C2CN(C(=O)Nc3ccc(OC(F)(F)F)cc3)N=C2c2ccc(Cl)cc2)c1 (stereo not drawn) [Example 3],3.91,
N#Cc1cnn(C2CN(C(=O)Nc3ccc(C(F)(F)F)cc3)N=C2c2ccc(Cl)cc2)c1 (stereo not drawn) [Example 4],3.86,
N#Cc1cnn(C2CN(C(=O)Nc3ccc(SC(F)(F)F)cc3)N=C2c2ccc(Cl)cc2)c1 (stereo not drawn) [Example 5],4.27,
COC(=O)N(C(=O)N1CC(n2cc(C#N)cn2)C(c2ccc(Cl)cc2)=N1)c1ccc(OC(F)(F)F)cc1 (stereo not drawn) [Example 6],3.82,
CCOC(=O)N(C(=O)N1CC(n2cc(C#N)cn2)C(c2ccc(Cl)cc2)=N1)c1ccc(OC(F)(F)F)cc1 (stereo not drawn) [Example 7],4.06,
N#Cc1cnn(C2CN(C(=O)Nc3ccc(OC(F)(F)F)cc3)N=C2c2ccc(Br)cc2)c1 (stereo not drawn) [Example 9],4.00,
N#Cc1cnn(C2CN(C(=O)Nc3ccc(SC(F)(F)F)cc3)N=C2c2ccc(Br)cc2)c1 (stereo not drawn) [Example 10],4.35,
N#Cc1cnn(C2CN(C(=O)Nc3ccc(S(=O)(=O)C(F)(F)F)cc3)N=C2c2ccc(Br)cc2)c1 (stereo not drawn) [Example 11],3.88,
N#Cc1cnn(C2CN(C(=O)Nc3ccc([S+]([O-])C(F)(F)F)cc3)N=C2c2ccc(Cl)cc2)c1 (stereo not drawn) [Example 12],3.28,
N#Cc1cnn(C2CN(C(=O)Nc3ccc(OC(F)(F)F)cc3)N=C2c2ccc(I)cc2)c1 (stereo not drawn) [Example 13],4.12,
N#Cc1cnn(C2CN(C(=O)Nc3ccc(SC(F)(F)F)cc3)N=C2c2ccc(I)cc2)c1 (stereo not drawn) [Example 14],4.48,
N#Cc1cnn(C2CN(C(=O)Nc3ccc(OC(F)(F)F)cc3)N=C2c2ccc(SC(F)(F)F)cc2)c1 (stereo not drawn) [Example 15],4.39,
N#Cc1cnn(C2CN(C(=O)Nc3ccc(SC(F)(F)F)cc3)N=C2c2ccc(SC(F)(F)F)cc2)c1 (stereo not drawn) [Example 16],4.73,
COC(=O)c1cnn(C2CN(C(=O)Nc3ccc(OC(F)(F)F)cc3)N=C2c2ccc(Cl)cc2)c1 (stereo not drawn) [Example 17],3.95,
N#Cc1cnn(C2CN(C(=O)Nc3ccc(S(=O)(=O)C(F)(F)F)cc3)N=C2c2ccc(Cl)cc2)c1 (stereo not drawn) [Example 18],3.78,
CN(C)C(=O)c1cnn(C2CN(C(=O)Nc3ccc(OC(F)(F)F)cc3)N=C2c2ccc(Cl)cc2)c1 (stereo not drawn) [Example 19],3.27,
CNC(=O)c1cnn(C2CN(C(=O)Nc3ccc(OC(F)(F)F)cc3)N=C2c2ccc(Cl)cc2)c1 (stereo not drawn) [Example 20],3.07,

SMILES,logP (pH 2)/m.p.,logP (pH 2)
CNC(=O)c1cnn(C2CN(C(=O)Nc3ccc(SC(F)(F)F)cc3)N=C2c2ccc(Cl)cc2)c1 (stereo not drawn) [Example 21],3.39,
CNC(=O)c1cnn(C2CN(C(=O)Nc3ccc(S(=O)(=O)C(F)(F)F)cc3)N=C2c2ccc(Cl)cc2)c1 (stereo not drawn) [Example 22],3.00,
NC(=O)c1cnn(C2CN(C(=O)Nc3ccc(OC(F)(F)F)cc3)N=C2c2ccc(Cl)cc2)c1 (stereo not drawn) [Example 23],2.94,
NC(=O)c1cnn(C2CN(C(=O)Nc3ccc(SC(F)(F)F)cc3)N=C2c2ccc(Cl)cc2)c1 (stereo not drawn) [Example 24],3.24,
NC(=O)c1cnn(C2CN(C(=O)Nc3ccc(S(=O)(=O)C(F)(F)F)cc3)N=C2c2ccc(Cl)cc2)c1 (stereo not drawn) [Example 25],2.94,
CN(C)C(=O)c1cnn(C2CN(C(=O)Nc3ccc(SC(F)(F)F)cc3)N=C2c2ccc(Cl)cc2)c1 (stereo not drawn) [Example 26],3.27,
CN(C)C(=O)c1cnn(C2CN(C(=O)Nc3ccc(S(=O)(=O)C(F)(F)F)cc3)N=C2c2ccc(Cl)cc2)c1 (stereo not drawn) [Example 27],3.27,
N#Cc1cnn(C2CN(C(=O)Nc3ccc(Br)cc3)N=C2c2ccc(Cl)cc2)c1 (stereo not drawn) [Example 28],3.73,
N#Cc1ccc(NC(=O)N2CC(n3cc(C#N)cn3)C(c3ccc(Cl)cc3)=N2)cc1 (stereo not drawn) [Example 29],3.00,
N#Cc1cnn(C2CN(C(=O)Nc3ccc(I)cc3)N=C2c2ccc(Cl)cc2)c1 (stereo not drawn) [Example 30],3.90,
N#CCN(C(=O)N1CC(n2cc(C#N)cn2)C(c2ccc(Cl)cc2)=N1)c1ccc(Cl)cc1 (stereo not drawn) [Example 31],3.42,
N#CCN(C(=O)N1CC(n2cc(C#N)cn2)C(c2ccc(Cl)cc2)=N1)c1ccc(SC(F)(F)F)cc1 (stereo not drawn) [Example 32],3.90,
N#CCN(C(=O)N1CC(n2cc(C#N)cn2)C(c2ccc(Br)cc2)=N1)c1ccc(OC(F)(F)F)cc1 (stereo not drawn) [Example 33],3.75,
N#CCN(C(=O)N1CC(n2cc(C#N)cn2)C(c2ccc(Br)cc2)=N1)c1ccc(SC(F)(F)F)cc1 (stereo not drawn) [Example 34],3.99,
N#CCN(C(=O)N1CC(n2cc(C#N)cn2)C(c2ccc(Br)cc2)=N1)c1ccc(C(F)(F)F)cc1 (stereo not drawn) [Example 35],3.63,
N#CCN(C(=O)N1CC(n2cc(C#N)cn2)C(c2ccc(Cl)cc2)=N1)c1ccc(C(F)(F)F)cc1 (stereo not drawn) [Example 36],3.56,
N#Cc1cnn(C2CN(C(=O)Nc3ccc(C(F)(F)F)cc3)N=C2c2ccc(Br)cc2)c1 (stereo not drawn) [Example 37],3.94,

# Other lines, results leading:
logP (pH 2)/m.p.,logP (pH 2),SMILES
,2.20,N#Cc1cnn(C2CNN=C2c2ccc(Br)cc2)c1 (stereo not drawn) [II-2]
,2.33,N#Cc1cnn(C2CNN=C2c2ccc(I)cc2)c1 (stereo not drawn) [II-3]
,2.78,N#Cc1cnn(C2CNN=C2c2ccc(SC(F)(F)F)cc2)c1 (stereo not drawn) [II-4]
,2.13,COC(=O)c1cnn(C2CNN=C2c2ccc(Cl)cc2)c1 (stereo not drawn) [II-5]
,1.54,CN(C)C(=O)c1cnn(C2CNN=C2c2ccc(Cl)cc2)c1 (stereo not drawn) [II-6]
,1.38,CNC(=O)c1cnn(C2CNN=C2c2ccc(Cl)cc2)c1 (stereo not drawn) [II-7]
,1.28,NC(=O)c1cnn(C2CNN=C2c2ccc(Cl)cc2)c1 (stereo not drawn) [II-8]
,2.31,N#Cc1cnn(CC(=O)c2ccc(Br)cc2)c1 [VI-3]
,2.47,N#Cc1cnn(CC(=O)c2ccc(I)cc2)c1 [VI-4]
,2.91,N#Cc1cnn(CC(=O)c2ccc(SC(F)(F)F)cc2)c1 [VI-5]
,2.20,COC(=O)c1cnn(CC(=O)c2ccc(Cl)cc2)c1 [VI-6]
,1.44,CNC(=O)c1cnn(CC(=O)c2ccc(Cl)cc2)c1 [VI-7]
,1.33,NC(=O)c1cnn(CC(=O)c2ccc(Cl)cc2)c1 [VI-8]
,2.82,N#CCNc1ccc(SC(F)(F)F)cc1 [XII-2]
,2.36,N#CCNc1ccc(C(F)(F)F)cc1 [XII-3]

# Same assay, conditions: reversed-phase C18 HPLC column; values in the text of the Preparation Examples; HPLC, acidic range pH 2.3, 43° C.; read-out: logP (pH 2)
row,SMILES,chromatographic logP
1,O=C(O)c1cnn(CC(=O)c2ccc(Cl)cc2)c1 [1-(4-chlorophenacyl)-pyrazole-4-carboxylic acid],1.67
2,"N#Cc1cnn(C2CN(C(=O)Nc3ccc(Cl)cc3)N=C2c2ccc(Cl)cc2)c1 (stereo not drawn) [Example 1, 4′-chloro-3-(4-chlorophenyl)-4-(4-cyanopyrazol-1-yl)-4,5-dihydro-1-pyrazolecarboxanilide]",3.64
3,"N#CCN(C(=O)N1CC(n2cc(C#N)cn2)C(c2ccc(Cl)cc2)=N1)c1ccc(OC(F)(F)F)cc1 (stereo not drawn) [Example 2, 3-(4-chlorophenyl)-4-(4-cyanopyrazol-1-yl)-4,5-dihydro-1-pyrazole-(N-cyanomethyl)-4′-trifluoromethoxycarboxanilide]",3.68

# Next, values leading:
row,chromatographic logP,SMILES
1,1.62,"CN(C)C(=O)c1cnn(CC(=O)c2ccc(Cl)cc2)c1 [VI-2, N,N-dimethyl-1-(4-chlorophenacyl)-pyrazole-4-carboxamide]"
2,2.49,"N#CCNc1ccc(OC(F)(F)F)cc1 [XII-1, N-cyanomethyl-4-trifluoromethoxyaniline]"

# Tested on: Lucilia cuprina larvae
# Experiment: Blowfly larvae test/development-inhibitory action
# Format: in vivo
# Conditions: 20 ppm; after 48 h
# Procedure: 20 mg of active compound are dissolved in 1 ml of dimethyl sulphoxide. More dilute concentrations are prepared by dilution with distilled water.
# About 20 Lucilia cuprina larvae are introduced into a test tube which contains about 1 cm^3 of horsemeat and 0.5 ml of the preparation of active compound to be tested. The activity of the preparation of active compound is determined after 24 and 48 hours. The test tubes are transferred into a beaker whose bottom is covered with sand. After a further 2 days, the test tubes are removed and the pupae are counted.
# The activity of the preparation of active compound is assessed using the number of flies that have hatched after 1.5 times the development period of an untreated control. 100% means that none of the flies have hatched; 0% means that all of the flies have hatched normally.
row,SMILES,activity/kill rate in % after 48 h
1,N#Cc1cnn(C2CN(C(=O)Nc3ccc(OC(F)(F)F)cc3)N=C2c2ccc(Cl)cc2)c1 (stereo not drawn) [drawing 78],100/100%
2,COC(=O)N(C(=O)N1CC(n2cc(C#N)cn2)C(c2ccc(Cl)cc2)=N1)c1ccc(OC(F)(F)F)cc1 (stereo not drawn) [drawing 79],100/100%
3,N#Cc1cnn(C2CN(C(=O)Nc3ccc(OC(F)(F)F)cc3)N=C2c2ccc(Br)cc2)c1 (stereo not drawn) [drawing 81],100/100%
4,N#Cc1cnn(C2CN(C(=O)Nc3ccc(S(=O)(=O)C(F)(F)F)cc3)N=C2c2ccc(Br)cc2)c1 (stereo not drawn) [drawing 82],100/100%
5,N#Cc1cnn(C2CN(C(=O)Nc3ccc(OC(F)(F)F)cc3)N=C2c2ccc(I)cc2)c1 (stereo not drawn) [drawing 83],100/100%
6,N#Cc1cnn(C2CN(C(=O)Nc3ccc(S(=O)(=O)C(F)(F)F)cc3)N=C2c2ccc(Cl)cc2)c1 (stereo not drawn) [drawing 84],100/100%
7,N#CCN(C(=O)N1CC(n2cc(C#N)cn2)C(c2ccc(Cl)cc2)=N1)c1ccc(OC(F)(F)F)cc1 (stereo not drawn) [drawing 85],100/100%

# Same assay, conditions: 100 ppm; after 48 h
row,SMILES,activity/kill rate in % after 48 h
1,N#Cc1cnn(C2CN(C(=O)Nc3ccc(OC(F)(F)F)cc3)N=C2c2ccc(Cl)cc2)c1 (stereo not drawn) [drawing 78],100/100%
2,COC(=O)N(C(=O)N1CC(n2cc(C#N)cn2)C(c2ccc(Cl)cc2)=N1)c1ccc(OC(F)(F)F)cc1 (stereo not drawn) [drawing 79],100/100%
3,N#Cc1cnn(C2CN(C(=O)Nc3ccc(OC(F)(F)F)cc3)N=C2c2ccc(Br)cc2)c1 (stereo not drawn) [drawing 81],100/100%
4,N#Cc1cnn(C2CN(C(=O)Nc3ccc(S(=O)(=O)C(F)(F)F)cc3)N=C2c2ccc(Br)cc2)c1 (stereo not drawn) [drawing 82],100/100%
5,N#Cc1cnn(C2CN(C(=O)Nc3ccc(OC(F)(F)F)cc3)N=C2c2ccc(I)cc2)c1 (stereo not drawn) [drawing 83],100/100%
6,N#Cc1cnn(C2CN(C(=O)Nc3ccc(S(=O)(=O)C(F)(F)F)cc3)N=C2c2ccc(Cl)cc2)c1 (stereo not drawn) [drawing 84],100/100%
7,N#CCN(C(=O)N1CC(n2cc(C#N)cn2)C(c2ccc(Cl)cc2)=N1)c1ccc(OC(F)(F)F)cc1 (stereo not drawn) [drawing 85],100/100%

# Same assay, conditions: Lucilia cuprina, 48 h, read-out: activity/kill rate in % after 48 h
row,SMILES,pest or weed control at 100 ppm
1,CCOC(=O)N(C(=O)N1CC(n2cc(C#N)cn2)C(c2ccc(Cl)cc2)=N1)c1ccc(OC(F)(F)F)cc1 (stereo not drawn) [drawing 80],100%
